For assay [1], the target named is T1, L-Selectin (Homo sapiens, UniProt P14151).
T1 sequence (P14151 39-372): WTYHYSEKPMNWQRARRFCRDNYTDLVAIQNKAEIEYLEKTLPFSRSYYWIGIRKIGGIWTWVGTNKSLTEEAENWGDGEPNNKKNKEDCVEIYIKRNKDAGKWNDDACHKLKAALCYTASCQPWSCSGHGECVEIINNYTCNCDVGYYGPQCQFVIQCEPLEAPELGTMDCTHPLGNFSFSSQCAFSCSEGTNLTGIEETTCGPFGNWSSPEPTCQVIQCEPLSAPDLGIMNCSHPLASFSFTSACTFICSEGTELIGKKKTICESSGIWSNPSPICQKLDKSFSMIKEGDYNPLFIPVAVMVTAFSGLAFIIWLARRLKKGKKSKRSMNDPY
Kind of assay: ELISA inhibition of recombinant L-selectin binding to immobilized SLe^x. As to conditions: mean of 3 determinations, read-out: IC50 Values Against SLe^x, L-Selectin. How it is done: (§1) Relative Inhibitory Properties of Branched Chains Including Neu5Ac and/or GalNAcLe^x Against Recombinant Selectins Binding to Immobilized SLe^x
(§2) ELISA inhibition studies were done as previously reported conditions. Ic50 values against immobilized SLe^x are the mean values of 3 determinations and were calculated according to published methodology.
For orientation: ELISA stands for enzyme-linked immunosorbent assay.

For assay [2], the target named is T2, E-Selectin (Homo sapiens, UniProt P16581).
T2 sequence (P16581 22-610): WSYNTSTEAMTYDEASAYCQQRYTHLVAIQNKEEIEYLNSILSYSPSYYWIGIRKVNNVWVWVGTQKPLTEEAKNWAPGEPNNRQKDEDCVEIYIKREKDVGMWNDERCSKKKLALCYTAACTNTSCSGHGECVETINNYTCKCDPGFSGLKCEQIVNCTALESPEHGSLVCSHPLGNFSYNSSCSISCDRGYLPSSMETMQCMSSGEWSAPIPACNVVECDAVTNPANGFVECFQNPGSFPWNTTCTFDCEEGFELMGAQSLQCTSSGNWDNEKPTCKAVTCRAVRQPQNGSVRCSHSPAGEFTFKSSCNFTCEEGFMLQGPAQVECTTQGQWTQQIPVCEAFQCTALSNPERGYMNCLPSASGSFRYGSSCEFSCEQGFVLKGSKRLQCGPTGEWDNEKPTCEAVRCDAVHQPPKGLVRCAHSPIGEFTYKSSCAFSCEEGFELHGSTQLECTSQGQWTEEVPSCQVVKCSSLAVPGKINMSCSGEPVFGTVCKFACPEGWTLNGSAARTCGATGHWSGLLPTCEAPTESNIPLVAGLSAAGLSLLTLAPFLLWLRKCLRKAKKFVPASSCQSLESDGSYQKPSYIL
Nature of the assay: ELISA inhibition of recombinant E-selectin binding to immobilized SLe^x. Particulars: mean of 3 determinations, read-out: IC50 Values Against SLe^x, E-Selectin. How it is done: as §1, §2

In assay [3] the target is T3, P-Selectin (Homo sapiens, UniProt P16109).
T3 sequence (P16109 42-830): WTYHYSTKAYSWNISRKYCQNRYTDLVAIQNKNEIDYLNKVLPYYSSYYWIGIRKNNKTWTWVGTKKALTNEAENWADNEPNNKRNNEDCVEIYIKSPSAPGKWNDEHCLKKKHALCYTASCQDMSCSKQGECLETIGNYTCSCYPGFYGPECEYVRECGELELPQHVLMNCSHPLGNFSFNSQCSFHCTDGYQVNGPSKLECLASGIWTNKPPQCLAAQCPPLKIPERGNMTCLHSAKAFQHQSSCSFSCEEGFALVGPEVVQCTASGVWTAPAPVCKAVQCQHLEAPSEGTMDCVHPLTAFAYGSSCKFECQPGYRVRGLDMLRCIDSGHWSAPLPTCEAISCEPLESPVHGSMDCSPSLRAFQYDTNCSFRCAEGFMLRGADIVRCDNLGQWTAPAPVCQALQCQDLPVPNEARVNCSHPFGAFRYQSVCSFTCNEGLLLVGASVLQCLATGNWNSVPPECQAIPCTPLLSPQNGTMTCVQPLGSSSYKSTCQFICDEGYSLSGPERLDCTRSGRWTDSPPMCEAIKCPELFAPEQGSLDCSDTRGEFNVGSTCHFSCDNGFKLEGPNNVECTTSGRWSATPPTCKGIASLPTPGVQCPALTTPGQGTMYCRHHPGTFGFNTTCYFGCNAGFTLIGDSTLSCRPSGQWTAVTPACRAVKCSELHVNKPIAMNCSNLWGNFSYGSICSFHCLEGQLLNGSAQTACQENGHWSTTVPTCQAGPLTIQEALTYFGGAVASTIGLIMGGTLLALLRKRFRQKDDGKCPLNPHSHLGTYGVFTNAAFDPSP
Kind of assay: ELISA inhibition of recombinant P-selectin binding to immobilized SLe^x. Particulars: for IC50: recombinant selectin, immobilized SLe^x, ELISA, mean of 3 determinations, read-out: IC50 Values Against SLe^x, P-Selectin. How it is done:
as §1, §2

Assay [4] has as its target T3, P-Selectin. Kind of assay: Other studies of binding (unspecified; P-selectin context). Particulars: no details given.
Assay [5] has as its target T1, L-Selectin. Particulars: cited from earlier work; for affinity for L-selectin: recent study / inhibition studies of Scudder et al.
For assay [6], the target named is T2, E-Selectin. As to conditions: isolated from human cell produced Protein C; cited from earlier work.

Take `CO[C@@H]1O[C@H](CO)[C@@H](O[C@@H]2O[C@H](CO)[C@H](O)[C@H](O)[C@H]2NC(C)=O)[C@H](O[C@@H]2O[C@@H](C)[C@@H](O)[C@@H](O)[C@@H]2O)[C@H]1NC(C)=O` [Compound 8b]: the IC50 in assay [1] was 300 µM; in assay [2], over 500 µM; in assay [3], 400 µM.
As for `CO[C@H]1O[C@H](CO[C@@H]2O[C@H](CO)[C@@H](O[C@@H]3O[C@H](CO)[C@H](O)[C@H](O)[C@H]3NC(C)=O)[C@H](O[C@@H]3O[C@@H](C)[C@@H](O)[C@@H](O)[C@@H]3O)[C@H]2NC(C)=O)[C@H](O)[C@H](O[C@@H]2O[C@H](CO)[C@H](O)[C@H](O)[C@H]2O)[C@H]1NC(C)=O` [Compound 14, Methyl O-(2-acetamido-2-deoxy-β-D-galactopyranosyl)-(1→4)-O-[(α-L-fucopyranosyl)-(1→3)-O]-(2-acetamido-2-deoxy-β-D-glucopyranosyl)-(1→6)-O-[(β-D-galactopyranosyl)-(1→3)-O]-2-acetamido-2-deoxy-α-D-galactopyranoside], the IC50 is 300 µM in assay [1], over 500 µM in assay [2] and 400 µM in assay [3].
`CO[C@H]1O[C@H](CO[C@@H]2O[C@H](CO)[C@@H](O[C@@H]3O[C@H](CO)[C@H](O)[C@H](O)[C@H]3NC(C)=O)[C@H](O[C@@H]3O[C@@H](C)[C@@H](O)[C@@H](O)[C@@H]3O)[C@H]2NC(C)=O)[C@H](O)[C@H](O[C@@H]2O[C@H](CO)[C@H](O)[C@H](O[C@]3(C(=O)O)C[C@H](O)[C@@H](NC(C)=O)[C@H]([C@H](O)[C@H](O)CO)O3)[C@H]2O)[C@H]1NC(C)=O` [Compound 16]: the values for the IC50 in assay [1], in assay [2] and in assay [3] were 105 µM, over 500 µM and 85 µM, respectively.
Consider `CO[C@H]1O[C@H](CO[C@@H]2O[C@H](CO)[C@@H](O[C@@H]3O[C@H](CO)[C@H](O)[C@H](O)[C@H]3NC(C)=O)[C@H](O[C@@H]3O[C@@H](C)[C@@H](O)[C@@H](O)[C@@H]3O)[C@H]2NC(C)=O)[C@H](O)[C@H](O[C@@H]2O[C@H](CO)[C@H](O)[C@H](OS(=O)(=O)O)[C@H]2O)[C@H]1NC(C)=O` [Compound 19], for which the IC50 was 500 µM in assay [1], over 500 µM in assay [2] and over 500 µM in assay [3]. The “binding in other studies” value in assay [4] is recorded as “even greater binding”. For the same compound, in assay [3] (compared with sialyl Lewis^x), the “binding ability relative to sialyl Lewis^x for P-selectin” value is recorded as “about six”.
In the case of `COC1O[C@H](CO)[C@@H](O[C@@H]2O[C@H](COS(=O)(=O)O)[C@H](O)[C@H](O[C@]3(C(=O)O)C[C@H](O)[C@@H](NC(C)=O)[C@H]([C@H](O)[C@H](O)CO)O3)[C@H]2O)[C@H](O[C@@H]2O[C@@H](C)[C@@H](O)[C@@H](O)[C@@H]2O)[C@H]1NC(C)=O` (stereo partly shown) [NeuAcα2→3SE-6 Galβ1→4(Fucα1→3)GlcNAcOMe], the “affinity for L-selectin” value in assay [5] is reported as “lacked a high affinity”. Further, in assay [5] (recent study), the “ligand quality for L-selectin” value is given as “not a superior ligand”.
Consider “GalNAcβ1→4(Fucα1→3)GlcNAcβ1→Manα1→3/6Manβ1→4GlcNAcβ1→4GlcNAc”, for which the “inhibition of E-selectin” value in assay [6] was “potent inhibitor”.
In the case of “NeuAcα2→3Galβ1→4(Fucα1→3)SE-3GlcNAcβ1→3Gal”, in assay [5], the “affinity for L-selectin” value is recorded as “lacked a high affinity”.
sialyl Lewis^x [reference compound]: in assay [1], the 50% inhibitory concentration (IC50) stood at 600 µM.

Broadly, the IC50 is the point on the concentration scale where inhibition reaches its midpoint.

The record behind these values is US5972907A, “Synthetic core 2-like branched structures containing GalNAc-lewis^x and Neu5Acα2-3Galβ1-3GalNAc sequences as novel ligands for selectins” (Health Research, Inc., priority 1997, dated 1999).
